Data set [1] has as its target T1, human Branched Chain Amino Acid Aminotransferase cytosolic form (hBCATc) (Homo sapiens, UniProt P54687).
T1 construct: made in house; host or cells: E. coli BL21(DE3)
T1 sequence (P54687 1-386): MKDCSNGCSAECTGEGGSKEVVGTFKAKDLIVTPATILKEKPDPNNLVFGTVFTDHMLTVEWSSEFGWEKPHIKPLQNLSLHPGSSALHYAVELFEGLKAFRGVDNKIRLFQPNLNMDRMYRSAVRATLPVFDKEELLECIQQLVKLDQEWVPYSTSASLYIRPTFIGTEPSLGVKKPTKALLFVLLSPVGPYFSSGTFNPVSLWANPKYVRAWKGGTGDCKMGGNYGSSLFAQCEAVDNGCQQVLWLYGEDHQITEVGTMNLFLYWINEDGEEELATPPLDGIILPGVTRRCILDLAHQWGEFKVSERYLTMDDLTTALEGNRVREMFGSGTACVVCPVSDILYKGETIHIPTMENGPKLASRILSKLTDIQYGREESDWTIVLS
The data set is described as follows: In vitro coupled enzyme assay (glutamate dehydrogenase, NADH formation), human BCATc. The data set is classed as biochemical. To be noted: recombinant human BCATc, 37° C., 25 mM phosphate buffer pH 7.8; several values in a cell = repeat determinations; read-out: RhBCATc. The method, then: In vitro enzyme assay—human Branched Chain Amino Acid Aminotransferase cytosolic form (hBCATc) and mitochondrial form (hBCATm) as well as rat BCAT cytosolic form were assayed at 37° C. in 25 mM phosphate buffer pH 7.8. In addition, 2 mM DTT and 12.5 mM […] were added to the assay mixture. A coupling enzyme assay was used to monitor the production of glutamate. The formation of NADH from NAD+ at […] was followed on a 96-well plate Molecular Devices plate reader.
The following components were used in this coupled assay: 4 mM ADP, 1 mM NAD+, 750 μM L-Leucine, 500 μM α-ketoglutarate, 10 μM pyridoxal phosphate, 1 unit glutamate dehydrogenase, and 1.25 μg of the appropriate BCAT enzyme. Inhibitions by compounds were assayed by adding various concentrations to this coupled assay procedure as a DMSO stock up to a 5% v/v DMSO/buffer ratio.
Enzyme Preparation—humanBCATc and ratBCATc were expressed in BL21(DE3) cells. A growing culture of cells was induced with 1 mM IPTG at room temperature overnight. These cells were harvested by centrifugation at 10,000 g for 20 minutes. The supernatant was discarded, and the cells were stored at −80° C. until needed. The protein was purified by the following method. The cell paste was resuspended in extraction buffer (0.1 M phosphate, pH 8.0, with 0.01 M Tris-HCL and 5 mM TCEP and then lysed on a French Press at 1000 psi. The lysate was centrifuged at 10,000 g for 15 minutes, and the pellet was discarded. The supernatant was loaded onto a Hitrap Chelating column previously charged with 0.1 M NiSO4 and washed with 3 to 4 column volumes of extraction buffer. The column was then washed with 0.01 Tris, pH 7.5, 10% glycerol, 150 mM NaCl, 5 mM TCEP for two column volumes. The column was then further washed with two column volumes of 0.1 M phosphate, pH 6.0, 0.01 M Tris, 10% glycerol and 750 mM NaCl. Finally, the column was washed with two column volumes of the same buffer plus 50 mM imidazole. The BCAT enzyme was then eluted with the same buffer but with 350 mM imidazole. The eluant was then dialyzed overnight against 10 mM phosphate buffer pH 8.0, 10% glycerol, and 5 mM TCEP. The dialyzed protein was then loaded onto a Q-sepharose column and eluted using a salt gradient. Active fractions were collected and further purified on a Superose-12 column to yield pure BCAT protein.

The structures appear in SMILES notation. Where “and” joins values, the source holds several entries; their conditions need not be identical. Equal values may be shown once. Some results are limits rather than exact numbers.

The values that follow come from patent US20050004167A1, “Branched chain amino acid-dependent aminotransferase inhibitors and their use in the treatment of neurodegenerative diseases” (WARNER-LAMBERT COMPANY LLC, priority 2001, published 2005).

As usually defined, the melting point is the temperature, or range, at which the solid turns liquid.

For `O=C(NNS(=O)(=O)c1cc(Cl)cc(Cl)c1)c1cnc2ccccc2c1` (hydrate or solvate) [Example 139, 3-Quinolinecarboxylic acid, 2-[(3,5-dichlorophenyl)sulfonyl]hydrazide], the melting point lay within 241.3 to 241.9 °C. For `O=C(NNS(=O)(=O)c1ccccc1)c1nccc2ccccc12` (hydrate or solvate) [Example 152, Isoquinoline-1-carboxylic acid 2-(phenylsulfonyl)hydrazide], the melting point was in the range of 198 to 200 °C. Regarding `O=C(NNS(=O)(=O)c1ccccc1)c1ccc2[nH]ccc2c1` (hydrate or solvate) [Example 153, 1H-Indole-5-carboxylic acid 2-(phenylsulfonyl)hydrazide], the melting point was in the range of 209 to 211 °C. Same read-out and setting: with `O=C(NNS(=O)(=O)c1ccccc1)c1cnc2ccccc2c1` (hydrate or solvate) [Example 154, Quinoline-3-carboxylic acid 2-(phenylsulfonyl)hydrazide] the figure was 249 to 250 °C. The compound `O=C(NNS(=O)(=O)c1c(Cl)cccc1Cl)c1ccc2oc3ccccc3c2c1` [Example 28, 2-Dibenzofurancarboxylic acid 2-[(2,6-dichlorophenyl)sulfonyl]hydrazide] returned a melting point of 202 to 203 °C. Further, in data set [1], the IC50 is > 100 µM. `O=C(NNS(=O)(=O)c1ccccc1Br)c1cc2cc(Cl)ccc2o1` [Example 44, 2-Benzofurancarboxylic acid, 5-chloro-2-[(2-bromophenyl)sulfonyl]hydrazide] displayed a melting point of 206.4 to 207.3 °C. Besides, in data set [1], the IC50 was determined as 3.44 µM. The compound `Cc1ccccc1S(=O)(=O)NNC(=O)c1cc2cc(Cl)ccc2o1` [Example 46, 2-Benzofurancarboxylic acid, 5-chloro-2-[(2-methylphenyl)sulfonyl]hydrazide] showed a melting point of 190.5 to 192 °C. Also, the IC50 in data set [1] is 1.08 µM and 0.7 µM.

The compound `O=C(NNS(=O)(=O)c1ccccc1C(F)(F)F)c1ccc2ncccc2c1` [Example 134, 6-Quinolinecarboxylic acid, 2-[(2-trifluoromethylphenyl)sulfonyl]hydrazide] gave a melting point of 236.7 to 237.4 °C. In data set [1], the IC50 stood at 17 µM. For `O=C(NNS(=O)(=O)c1ccccc1OC(F)(F)F)c1ccc2ncccc2c1` [Example 136, 6-Quinolinecarboxylic acid, 2-[(2-trifluoromethoxyphenyl)sulfonyl]hydrazide], in that order: 243.5 to 243.9 °C and 40 µM. For `O=C(NNS(=O)(=O)c1ccc(F)c(Cl)c1)c1ccc2ncccc2c1` [Example 140, 6-Quinolinecarboxylic acid, 2-[(3-chloro-4-fluorophenyl)sulfonyl]hydrazide], in that order: 241.9 to 242.6 °C and > 100 µM. `O=C(NNS(=O)(=O)c1ccc(F)c(Cl)c1)c1cnc2ccccc2c1` [Example 141, 3-Quinolinecarboxylic acid, 2-[(3-chloro-4-fluorophenyl)sulfonyl]hydrazide] came in with a melting point of 245 to 245.7 °C. Moreover, the IC50 in data set [1] was > 100 µM. `COc1cccc(S(=O)(=O)NNC(=O)c2ccc3ncccc3c2)c1` [Example 142, 6-Quinolinecarboxylic acid, 2-[(3-methoxyphenyl)sulfonyl]hydrazide] displayed a melting point of 201.9 to 202.7 °C. In data set [1], the IC50 was determined as 46 µM. For `COc1cccc(S(=O)(=O)NNC(=O)c2cnc3ccccc3c2)c1` [Example 143, 3-Quinolinecarboxylic acid, 2-[(3-methoxyphenyl)sulfonyl]hydrazide] the same measures were 226.9 to 227.2 °C and 80 µM. For `O=C(NNS(=O)(=O)c1cccc(Br)c1)c1ccc2ncccc2c1` [Example 144, 6-Quinolinecarboxylic acid, 2-[(3-bromophenyl)sulfonyl]hydrazide], in that order: 216 to 216.8 °C and 29 µM. For `O=C(NNS(=O)(=O)c1cccc(Br)c1)c1cnc2ccccc2c1` [Example 145, 3-Quinolinecarboxylic acid, 2-[(3-bromophenyl)sulfonyl]hydrazide], in that order: 231.5 to 232.3 °C and 80 µM. The compound `CCOc1cccc2cc(C(=O)NNS(=O)(=O)c3ccccc3)oc12` [Example 147, 7-Ethoxy-2-benzofurancarboxylic acid 2-(phenylsulfonyl)-hydrazide] came in with a melting point of 223 to 224 °C. Consider `O=C(NNS(=O)(=O)c1ccccc1)c1cc2cccc(Cl)c2o1` [Example 148, 7-Chloro-benzofuran-2-carboxylic acid 2-(phenylsulfonyl)hydrazide], for which the melting point is 223 to 224 °C. `Nc1ccc2[nH]c(C(=O)NNS(=O)(=O)c3ccccc3)cc2c1` [Example 150, 2-Indolecarboxylic acid, 5-amino-2-phenylsulfonyl hydrazide] displayed a melting point of 240.2 to 241.1 °C. The same measure, in the same setting: in the case of `O=C(NNS(=O)(=O)c1ccc([N+](=O)[O-])cc1)c1ccc2oc3ccccc3c2c1` [Example 159, 2-Dibenzofurancarboxylic acid, 2-(4-nitrophenyl)sulfonyl hydrazide] it was 239.3 to 239.9 °C; in that of `COc1ccc(S(=O)(=O)Nc2ccc3oc(C(=O)NNS(=O)(=O)c4ccccc4)cc3c2)cc1` [Example 160, 2-Benzofurancarboxylic acid, 5-(4-methoxyphenylsulfonylamino)-, 2-(phenylsulfonyl)hydrazide], 213 to 214 °C; in that of `Cc1ccc(S(=O)(=O)Nc2ccc3oc(C(=O)NNS(=O)(=O)c4ccccc4)cc3c2)cc1` [Example 161, 2-Benzofurancarboxylic acid, 5-(4-methylphenylsulfonylamino)-, 2-(phenylsulfonyl)hydrazide], 181 to 183 °C. On the same count and under the same terms, with `O=C(NNS(=O)(=O)c1ccccc1[N+](=O)[O-])c1ccc2oc3ccccc3c2c1` [Example 162, 2-Dibenzofurancarboxylic acid, 2-[(2-nitrophenyl)sulfonyl]hydrazide] the figure was 223.4 to 224.1 °C; with `CCCCCc1ccc(S(=O)(=O)Nc2ccc3oc(C(=O)NNS(=O)(=O)c4ccccc4)cc3c2)cc1` [Example 163, 2-Benzofurancarboxylic acid, 5-(4-pentylphenylsulfonylamino)-, 2-(phenylsulfonyl)hydrazide], 169 to 169.8 °C; with `CC(C)Nc1ccc2oc(C(=O)NNS(=O)(=O)c3ccccc3)cc2c1` [Example 164, 2-Benzofurancarboxylic acid, 5-(N-isopropylamino)-, 2-(phenylsulfonyl)hydrazide], 94.7 to 95.5 °C. The same measure, in the same setting: with `CCCc1ccc(S(=O)(=O)Nc2ccc3oc(C(=O)NNS(=O)(=O)c4ccccc4)cc3c2)cc1` [Example 165, 2-Benzofurancarboxylic acid, 5-(4-propyllphenylsulfonylamino)-, 2-(phenylsulfonyl)hydrazide] the figure was 160.4 to 161.1 °C; with `Nc1ccccc1S(=O)(=O)NNC(=O)c1ccc2oc3ccccc3c2c1` [Example 166, 2-Dibenzofurancarboxylic acid, 2-[(2-aminophenyl)sulfonyl]hydrazide], 217.9 to 218.4 °C. The compound `O=C(NNS(=O)(=O)c1ccccc1)c1cc2cc([N+](=O)[O-])ccc2[nH]1` [Example 170, 2-Indolecarboxylic acid, 5-nitro-2-phenylsulfonyl hydrazide] returned a melting point of 268.2 to 269.1 °C. `O=C(NNS(=O)(=O)c1ccccc1)c1cc2cc(Cl)ccc2[nH]1` [Example 171, 2-Indolecarboxylic acid, 5-chloro-2-phenylsulfonyl hydrazide] registered a melting point of 79.1 to 79.9 °C.
